How the values were obtained:
Assay type in all cases: in vivo, human
[1] = Regression / mixed model of Toxicity Index on demographic variables and received dose
Method: (§1) A preliminary data analysis focused on the relationship between the Toxicity Index and the recipient subjects' demographic/genetic information. […] Univariate linear regression analysis was conducted first to find significant covariates in predicting the Toxicity Index in one of five cycles, then multivariable analysis was used to determine the best model in fitting the data. A mixed model for repeated measurement was implemented in modeling Toxicity Index in the first five cycles, and also in all cycles. Autoregressive covariance structure was used in the mixed model. SAS and Minitab were used in the analysis.
(§2) Covariates in the analysis included recoded binary demographic variables (sex, race, site, grade, stage) and recoded binary genetic variables.
(§3) Multivariable regression analysis was used to find the best model in predicting the Toxicity Index in each of the first five cycles.
A mixed model for repeated measurements was implemented to find the best model in fitting the longitudinal data. Autoregressive covariance structure was used in the mixed model. Toxicity Indexes in the first five cycles were included in the analysis.
To model Toxicity Indexes in all 21 cycles, a mixed model was used to find the best model. For the paclitaxel, Received dose and MAPT_H14 were significant fixed effects in predicting the longitudinal Toxicity Index in all cycles.

TUBB gene locus = assay: Regression of Toxicity Index on TUBB SNP genotype of recipient subjects
Description: The GENOMELAB SNPSTREAM™ (Beckman) was utilized to accommodate up to 92,000 genotypes per day. This automated, multiplexed system can process up to 48 SNPs in each well of an arrayed 384-well plate. The SNPSTREAM™ operates at a consistent cost per genotype or per sample, regardless of run throughput, allowing users to cost-effectively zero in on targets with low-throughput studies as well as conduct high-throughput analyses.
The SNPSTREAM™ Genotyping System features a protocol with three steps. The technology is based on single-based primer extension technology. The system's high sensitivity delivers results using as little as 2 ng of genomic DNA. SNPWARE™ reagent kits were used. The kits included ready-to-use reagents, all performed in the original PCR plate according to the manufacturer's instructions, and incorporated herein by reference in its entirety.
Multiplexed reactions were spatially resolved on a SNPWARE™ Tag Array plate. Each of the 384 wells in a plate contained 16 or 52 unique oligonucleotides of a known sequence, or tag. Each tag on the plate was complementary to one of the tags of the 12 or 48 extension primers, plus four controls to ensure accuracy. After transfer to the Tag Array plate, each SNP was hybridized to its complementary tag. SNPs were then identified by their position in the well.
The process involved a multiplex PCR followed by an annealing reaction of the oligonucleotide to the specific PCR product. Next the oligonucleotide was extended by a single base which was fluorescently labeled with a terminating NTP and finally detected by two-colored fluorescence specific for the allele.
For each SNP, the -PCRU and -PCRL primers were first used to amplify a relevant DNA fragment surrounding the target SNP site. The components per reaction were: H2O, 3.0 μl; 10× PCR Buffer II, 0.5 μl; MgCl2 (25 mM), 1.0 μl; dNTPs (2.5 mM each), 0.18 μl; PCR Primer Pool (2.5 μM each), 0.1 μl; AMPLITAQ GOLD™ (5 U/μl), 0.125 μl for a total volume of 5.0 μl per reaction.
Primer -SNPU or SNPL was then used for single-base extension reaction. The thermocycler program was as follows: Step 1: 96° C. for 3 min; Step 2: 94° C. for 20 sec; Step 3: 40° C. for 11 sec; and Step 5: return to step 2 59 times, and finally to hold at 4° C.
Thirty (30) recipient subjects already receiving treatment with paclitaxel were screened for the presence of SNPs in the CYP2C8 and TUBB loci. Clinical data from each of the recipient subjects was used to first calculate a Toxicity Index (TI) value for each individual according to the method presented in Example 1, above. The genotype for each recipient subject with regard to the SNPs of CYP2C8 and TUBB was determined using SNPWARE™ and single base extension according to the methods of Example 4, above.
For the CYP2C8 locus, two genotypes for the rsl 058932 SNP (as shown in FIG. 1) were considered: heterozygous TC and homozygous CC. For the TUBB locus (SNP rs3132584), the heterozygous SNP CA, and the combined homozygous AA and CC variants, were considered.
as §1, §2, §3

CYP2C8 gene locus = assay: Regression of Toxicity Index on CYP2C8 SNP genotype of recipient subjects
Method: The […] ™ Genotyping System features a protocol with three steps. The technology is based on single-based primer extension technology. […] SNPWARE™ reagent kits were used.
For each SNP, the -PCRU and -PCRL primers were first used to amplify a relevant DNA fragment surrounding the target SNP site. The components per reaction were: H2O, 3.0 μl; 10× PCR Buffer II, 0.5 μl; MgCl2 (25 mM), 1.0 μl; dNTPs (2.5 mM each), 0.18 μl; PCR Primer Pool (2.5 μM each), 0.1 μl; [sequence] GOLD™ (5 U/μl), 0.125 μl for a total volume of 5.0 μl per reaction.

CC(=O)O[C@@]12CO[C@@H]1C[C@H](O)[C@@]1(C)C(=O)[C@H](O)C3=C(C)[C@@H](OC(=O)[C@H](O)[C@@H](NC(=O)OC(C)(C)C)c4ccccc4)C[C@@](O)([C@@H](OC(=O)c4ccccc4)[C@H]21)C3(C)C (relative stereo) [Docetaxel, Benzenepropanoic acid, β-(((1,1-dimethylethoxy)carbonyl)amino)-α-hydroxy-, 12b-(acetyloxy)-12-(benzoyloxy)-2a,3,4,4a,5,6,9,10,11,12,12a,12b-dodecahydro-4,6,11-trihydroxy-4a,8,13,13-tetramethyl-5-oxo-7,11-methano-1H-cyclodeca(3,4)benz(1,2-b)oxet-9-yl ester trihydrate, (2aR-(2aα,4β,4aβ,6β,9(αR*,βS),11α,12α,12aα,12bα))-]
Fixed effect Estimate, Grade 2 ([1]; mixed model, longitudinal Toxicity Index in all cycles, Pr > |t| 0.0027): −0.9840
Fixed effect Estimate, Grade 2 ([1]; mixed model, longitudinal Toxicity Index in first five cycles, Pr > |t| 0.0106): −1.0426
Para. Est., TI3 vs Site (multivariable) ([1]; multivariable regression with MAPT_H13, cycle 3, Prostate Gland = 1, Others = 0, P-value 0.001): 2.365
Para. Est., TI3 vs Grade ([1]; univariate linear regression, cycle 3, Poorly Dif = 1, Others = 0, P-value 0.006): −1.609
Para. Est., TI3 vs Site ([1]; univariate linear regression, cycle 3, Prostate Gland = 1, Others = 0, P-value 0.046): 1.962

CC(=O)O[C@H]1C(=O)[C@@]2(C)[C@H]([C@H](OC(=O)c3ccccc3)[C@]3(O)C[C@H](OC(=O)[C@H](O)[C@@H](NC(=O)c4ccccc4)c4ccccc4)C(C)=C1C3(C)C)[C@]1(OC(C)=O)CO[C@@H]1C[C@@H]2O [Paclitaxel, (2aR,4S,4aS,6R,9S,11S,12S,12aR,12bS)-1,2a,3,4,4a,6,9,10,11,12,12a,12b-Dodecahydro-4,6,9,11,12,12b-hexahydroxy-4a,8,13,13-tetramethyl-7,11-methano-5H-cyclodeca(3,4)benz(1,2-b)oxet-5-one 6,12b-diacetate, 12-benzoate, 9-ester with (2R,3S)-N-benzoyl-3-phenylisoserine]
Coef, regression TI1 versus CYP2C8_2_31, TUBB2: predictor TUBB2 (TUBB gene locus; 30 recipient subjects, rs3132584, heterozygous CA vs combined AA and CC, P 0.039): −0.9135
Para. Est., TI2 vs TUBB4 (multivariable) (TUBB gene locus; multivariable analysis best model, cycle 2, rs1061397, CC = 1, TC/TT = 0, P-value 0.037): −1.185
Para. Est., TI1 vs TUBB2 (multivariable) (TUBB gene locus; multivariable regression with CYP2C8_2_31, cycle 1, rs3132584, CA = 1, CC/AA = 0, P-value 0.039): 0.914
Para. Est., TI1 vs TUBB1 (TUBB gene locus; univariate linear regression, cycle 1, rs8233, AG = 1, AA/GG = 0, P-value 0.042): 0.975
Para. Est., TI1 vs TUBB2 (TUBB gene locus; univariate linear regression, cycle 1, rs3132584, CA = 1, CC/AA = 0, P-value 0.042): 0.975
Para. Est., TI2 vs TUBB3 (TUBB gene locus; univariate linear regression, cycle 2, rs25527, CC = 1, TC/TT = 0, P-value 0.047): −1.062
Para. Est., TI2 vs TUBB4 (TUBB gene locus; univariate linear regression, cycle 2, rs1061397, CC = 1, TC/TT = 0, P-value 0.037): −1.185
Coef, regression TI1 versus CYP2C8_2_31, TUBB2: predictor CYP2C8_2_31 (CYP2C8 gene locus; 30 recipient subjects, rs1058932, heterozygous TC vs homozygous CC, P 0.020): −1.1100
Para. Est., TI4 vs CYP2C8_1C (multivariable) (CYP2C8 gene locus; multivariable analysis best model, cycle 4, rs17110453, AA = 1, CA = 0, P-value 0.033): −1.267
Para. Est., TI1 vs CYP2C8_2_31 (multivariable) (CYP2C8 gene locus; multivariable regression with TUBB2, cycle 1, rs1058932, CC = 1, TC = 0, P-value 0.020): −1.110
Para. Est., TI1 vs CYP2C8_2_31 (CYP2C8 gene locus; univariate linear regression, cycle 1, rs1058932, CC = 1, TC = 0, P-value 0.021): −1.168
Para. Est., TI4 vs CYP2C8_1C (CYP2C8 gene locus; univariate linear regression, cycle 4, rs17110453, AA = 1, CA = 0, P-value 0.033): −1.267
Fixed effect Estimate, Received Dose2 ([1]; mixed model, longitudinal Toxicity Index in all 21 cycles, Pr > |t| 0.0244): 0.002363
